These results are taken from patent publication US20160318856A1, “Substituted Urea eIF2alpha Kinase Activators” (THE BRIGHAM AND WOMEN'S HOSPITAL, INC., priority 2013, published 2016).

The structures appear in SMILES notation. Like-named read-outs stand apart in the source and are kept apart here.

A word on the IC50: it is the concentration that gives 50% inhibition.

Test [1] deals with Huh-7. Kind of test: cell proliferation assay, Huh-7. In kind it is cell-based. Conditions: Homo sapiens; Huh-7, Liver. The protocol:
(§1) Cells were seeded in 96-well plates and maintained for 5 days in the presence of 0.5 to 20 μM of individual compound, and cell proliferation was measured by the sulforhodamine B (SRB) assay as described previously (see, for example, Palakurthi, S. S. et al. Cancer Research 2000, 60(11), 2919-2925). Briefly, at the end of a 5-day treatment, cells were fixed in 10% cold trichloroacetic acid. Cell number was estimated by measuring the remaining bound dye of sulforhodamine B after washing. The percentage of growth was calculated by using the equation: 100×[(T−T0)/(C−T0)], where T and C represent the absorbance in treated and control cultures at Day 5, and T0 at time zero, respectively. If T is less than T0, cell death has occurred and can be calculated from 100×[(T−T0)/T0].

For test [2], the system named is BAF-3. Kind of test: cell proliferation assay, BAF-3. Conditions: Mus musculus, BaF3; BAF-3, Leukemia. It is filed as cell-based. The method, then:
as §1

In test [3] the test system is CaSki. As to the kind of experiment: cell proliferation assay, CaSki. To be noted: Homo sapiens, Ca-Ski, Cervix. In kind it is cell-based. The protocol:
as §1

In test [4] the test system is NIH/3T3 fibroblast cells. As to the kind of experiment: cell proliferation (SRB) assay, NIH/3T3. It is filed as cell-based. To be noted: for IC50: Mus musculus, NIH3T3. The protocol:
as §1
The experiments were conducted in triplicate, and each experiment was independently performed three times. IC50=effective dose of drug that inhibit cell proliferation by 50%. Data are shown as Mean±S.E.M.
Compounds I-6p, I-17, I-18 and I-20 were tested in NIH/3T3 fibroblast and CRL-2813 melanoma cancer cells in cell proliferation assay. The experiment was conducted in triplicate and each experiment was independently performed three times. Data are shown as Mean IC50±S.E.M.

Test [5] concerns T47D. As to the kind of experiment: cell proliferation assay, T47D. It is filed as cell-based. To be noted: Homo sapiens, Breast. The method, then:
as §1

Test [6] has as its system ACHN. As to the kind of experiment: cell proliferation assay, ACHN. In kind it is cell-based. Conditions: Homo sapiens, Kidney. The method, then: as §1
In test [7] the test system is PC-3. Kind of test: cell proliferation assay, PC-3. Conditions: Homo sapiens; PC-3, Prostate. It is filed as cell-based. The protocol: as §1
For test [8], the system named is A-549. As to the kind of experiment: cell proliferation assay, A-549. It is filed as cell-based. Conditions: Homo sapiens, A549; A-549, Lung. The protocol:
as §1

Test [9] concerns MCF-7 human breast cancer cells. As to the kind of experiment: cell proliferation assay, MCF-7. It is filed as cell-based. Conditions: MCF7, MCF-7, Breast. The method, then: as §1
Test [10] has as its system HT-29. As to the kind of experiment: cell proliferation assay, HT-29. In kind it is cell-based. Conditions: Homo sapiens; HT-29, Colon. The method, then:
as §1

Test [11] relates to eIF2α phosphorylation (eIF2•GTP•Met-tRNAi ternary complex; HRI activation). As to the kind of experiment: surrogate dual luciferase eIF2α phosphorylation (ternary complex) assay. In kind it is cell-based, human. To be noted: Homo sapiens; surrogate eIF2α phosphorylation assay, Table 3; read-out: Emax (F/R). In short, it runs like this: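 Cell-based dual luciferase reporter: firefly luciferase behind the ATF-4 5′UTR (uORFs) and renilla luciferase behind a uORF-free 5′UTR, read with a dual glow kit. Activity given as firefly/renilla ratio normalised to DMSO wells set at 1, with a rising ratio reflecting reduced ternary complex (e.g., HRI activation).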

Test [12] relates to CRL-2813 human melanoma cancer cells. As to the kind of experiment: cell proliferation (SRB) assay, CRL-2813. In kind it is cell-based. To be noted: Homo sapiens, CRL2813. The procedure, abridged:
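Cells exposed 5 days to 0.5–20 μM compound, then TCA-fixed and stained with sulforhodamine B. Growth as 100×[(T−T0)/(C−T0)] from absorbance of treated, control and time-zero cultures; cell death as 100×[(T−T0)/T0] where T is below T0.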

In test [13] the test system is ASPC-1. As to the kind of experiment: cell proliferation assay, ASPC-1. In kind it is cell-based. To be noted: Homo sapiens, ASPC1; ASPC-1, Pancreas; read-out: IC50. The protocol:
as §1
The compounds shown in Table 7 were evaluated using for activation of HRI using the dual luciferase surrogate eIF2α phosphorylation assay (see, for example, Chen, T. et al. Nature Chem Biol 2011, 7, 610-616) and for inhibition of cell proliferation using the SRB assay (see, for example, Palakurthi, S. S. et al. Cancer Res 2000, 60, 2919-2925) as described above.

As to `O=C(Nc1cccc(C(F)(F)F)c1)NC1CCC(Oc2ccc(OC(F)(F)F)cc2)CC1` (stereo not shown) [Compound I-17, 1-(4-(4-(trifluoromethoxy)phenoxy)cyclohexyl)-3-(3-(trifluoromethyl)phenyl)urea], the half-maximal inhibitory concentration (IC50) stood at 2100 nM in [1]; 800 nM in [2]; 2800 nM in test [3]; 3400 ± 200 nM in [4] (NIH/3T3, Table 5, Mean±S.E.M., read-out: IC50); 3400 ± 200 nM in test [4] (NIH/3T3, Table 8, Mean IC50±S.E.M., read-out: IC50 of compounds); 1200 nM in [5]. Moreover, the 50% inhibitory concentration (IC50) in [6] is 1400 nM; in test [7], 2900 nM; in [8] it was 900 nM; in test [9], 1300 nM; in [10] it was 2700 nM; in test [12] (CRL-2813, Table 8, Mean IC50±S.E.M., read-out: IC50 of compounds), 690 ± 100 nM. The IC50 in test [12] (cell proliferation assay, Table 3, cell line not named, values equal CRL-2813 values of Table 8, read-out: IC50) stood at 690 ± 100 nM; in [13], 2400 nM. For the same compound, the “fold higher potency on cancer cells compared to non-transformed cells” value in test [4] (CRL-2813 human melanoma vs NIH-3T3 fibroblast) is listed as “five-fold higher potency”. Further, in test [11], the maximal fold induction was 15.4.
